Reference: US20220370467A1, “USING OF A PPAR-DELTA AGONIST IN THE TREATMENT OF KIDNEY DISEASE” (Reneo Pharmaceuticals, Inc., priority 2019, published 2022)

Experiments:
[1] = biological target: T1, hPPARδ (Homo sapiens, UniProt Q03181); assay: in vitro assay on human PPAR subtypes (transactivation): hPPARδ; assay type: cell-based
T1 construct: (PPARδ: aa 128—C-terminus); expressed in transfected cells; host or cells: HEK293
T1 sequence (Q03181 128-441 limits assumed): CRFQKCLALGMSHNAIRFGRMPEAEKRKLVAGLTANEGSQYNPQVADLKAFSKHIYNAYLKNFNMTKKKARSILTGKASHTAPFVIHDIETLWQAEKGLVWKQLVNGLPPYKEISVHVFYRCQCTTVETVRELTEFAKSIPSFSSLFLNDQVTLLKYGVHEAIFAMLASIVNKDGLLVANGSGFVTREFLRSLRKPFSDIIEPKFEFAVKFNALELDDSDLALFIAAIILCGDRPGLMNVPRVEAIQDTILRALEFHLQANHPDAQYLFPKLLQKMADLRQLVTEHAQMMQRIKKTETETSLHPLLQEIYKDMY
Excerpt: (§1) “Activation” here is defined as the abovementioned downstream response, which in the case of PPAR's is gene transcription. Gene transcription may be measured indirectly as downstream production of proteins reflective of the activation of the particular PPAR subtype under study. Alternatively, an artificial reporter construct may be employed to study the activation of the individual PPAR's expressed in cells. The ligand binding domain of the particular receptor to be studied may be fused to the DNA binding domain of a transcription factor, which produces convenient laboratory readouts, such as the yeast GAL4 transcription factor DNA binding domain. The fusion protein may be transfected into a laboratory cell line along with a Gal4 enhancer, which effects the expression of the luciferase protein. When such a system is transfected into a laboratory cell line, binding of a receptor agonist to the fusion protein will result in light emission.
The PPAR transient transactivation assay may be based on transient transfection into human HEK293 cells of two plasmids encoding a chimeric test protein and a reporter protein respectively. The chimeric test protein may be a fusion of the DNA binding domain (DBD) from the yeast GAL4 transcription factor to the ligand binding domain (LBD) of the human PPAR proteins. The PPAR-LBD moiety harbored in addition to the ligand binding pocket also has the native activation domain, allowing the fusion protein to function as a PPAR ligand dependent transcription factor. The GAL4 DBD will direct the chimeric protein to bind only to Gal4 enhancers (of which none existed in HEK293 cells). The reporter plasmid contained a Gal4 enhancer driving the expression of the firefly luciferase protein. After transfection, HEK293 cells expressed the GAL4-DBD-PPAR-LBD fusion protein. The fusion protein will in turn bind to the Gal4 enhancer controlling the luciferase expression, and do nothing in the absence of ligand. […] The amount of luciferase protein is measured by light emission after addition of the appropriate substrate. […]

[2] = biological target: T2, hPPARα (Homo sapiens, UniProt Q07869); assay: in vitro assay on human PPAR subtypes (transactivation): hPPARα; assay type: cell-based
T2 construct: expressed in transfected cells; host or cells: HEK293
T2 sequence (Q07869 239-466 limits assumed): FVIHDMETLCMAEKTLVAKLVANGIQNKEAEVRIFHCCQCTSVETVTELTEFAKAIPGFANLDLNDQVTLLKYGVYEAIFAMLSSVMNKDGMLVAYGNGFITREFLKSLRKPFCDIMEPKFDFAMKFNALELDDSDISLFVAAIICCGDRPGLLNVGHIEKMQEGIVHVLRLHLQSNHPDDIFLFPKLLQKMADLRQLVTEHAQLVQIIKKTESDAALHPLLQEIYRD
Excerpt: as §1
The PPAR transient transactivation assay may be based on transient transfection into human HEK293 cells of two plasmids encoding a chimeric test protein and a reporter protein respectively. […] The amount of luciferase protein is measured by light emission after addition of the appropriate substrate. […]

[3] = test system: 2K1C rat clipped kidney; conditions: cited from earlier work
[4] = biological target: T3, LXRα (Homo sapiens, UniProt Q13133); assay: activity on nuclear receptor LXRα
T3 sequence (Q13133 1-447): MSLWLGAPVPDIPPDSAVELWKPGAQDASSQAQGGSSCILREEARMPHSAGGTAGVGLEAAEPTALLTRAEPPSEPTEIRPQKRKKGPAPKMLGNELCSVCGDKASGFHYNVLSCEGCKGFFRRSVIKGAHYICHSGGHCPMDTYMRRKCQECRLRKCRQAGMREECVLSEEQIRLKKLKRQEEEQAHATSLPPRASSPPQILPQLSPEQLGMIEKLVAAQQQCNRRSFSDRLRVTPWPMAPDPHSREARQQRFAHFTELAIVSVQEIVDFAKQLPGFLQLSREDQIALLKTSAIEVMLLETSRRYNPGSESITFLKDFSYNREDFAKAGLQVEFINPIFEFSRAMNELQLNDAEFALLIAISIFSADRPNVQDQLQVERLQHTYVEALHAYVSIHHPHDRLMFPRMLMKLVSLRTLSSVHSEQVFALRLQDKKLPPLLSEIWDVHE

- agonist type on PPARδ [1]: full agonist
- selectivity for PPARδ over PPARα ([1]; versus PPARα): at least 100 fold
- selectivity for PPARδ over PPARγ ([1]; versus PPARγ): at least 400 fold
- agonist type on PPARα [2]: partial agonist
- activity on PPARα in transactivation assays ([2]; in some cases): negligible activity
- activity on LXRα [4]: did not show any
Compound: Cc1cc(OC/C=C(/c2ccc(F)cc2)c2ccc(C#CCN3CCOCC3)cc2)ccc1OCC(=O)O [Compound 1, (E)-[4-[3-(4-Fluorophenyl)-3-[4-[3-(morpholin-4-yl)propynyl]phenyl]allyloxy]-2-methyl-phenoxy]acetic acid]
- levels of MCAD, COXIV, TFAM and Parkin proteins and AMPK activation ([3]; 2K1C rat kidneys): remained at the physiological levels
- mitochondrial biogenesis and autophagy (PGC1-a, LC3-II, ATG5) ([3]; 2K1C rat kidneys): inhibited similarly in both treated and untreated
- BNIP3 protein in the mitochondrial fraction ([3]; 2K1C rat, compared to untreated animals): decreased notably
- nuclear amounts of oxidative stress-responsive proteins NRF1 and NRF2 ([3]; 2K1C rat, treated kidneys): below physiological levels
- histochemical features of necrosis in clipped kidney ([3]; 2K1C rat, treated vs untreated clipped kidneys): did not exhibit any histochemical features of necrosis
- fibrotic lesions in clipped kidney ([3]; 2K1C rat): present only in perivascular areas
- oxidative stress in kidneys ([3]; 2K1C rat): attenuated
